Experimental data: PubChem BioAssay (NCI)
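Protocol summary: plate cells (96-well), add compound at 5 concentrations, incubate 48 h, interpolate endpoints linearly. Abbreviation: GI50, concentration required for 50% inhibition of growth. TGI marks complete inhibition of growth.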 Where a SMILES comes first, the peptide text is derived from it. [ ]: non-standard residue; d: D form. The star is where a group is joined. dTle = CC(C)(C)[C@@H](N)C(=O)O; 4Abz = Nc1ccc(C(=O)O)cc1; NHOH = ON*

Experiments:
Experiment in all cases: NCI anticancer screen, dose series, 48 h
[1] = tested on: A498 renal
[2] = tested on: UACC-62 melanoma
[3] = tested on: NCI/ADR-RES ovarian
[4] = tested on: OVCAR-4 ovarian
[5] = tested on: SNB-19 CNS
[6] = tested on: EKVX NSCLC
[7] = tested on: SW-620 colon
[8] = tested on: MCF7 breast

| Compound | GI50 [1] | TGI [1] | GI50 [2] | TGI [2] | GI50 [3] | TGI [3] | GI50 [4] | TGI [4] | GI50 [5] | TGI [5] | GI50 [6] | TGI [6] | GI50 [7] | TGI [7] | GI50 [8] | TGI [8] |
| --- | --- | --- | --- | --- | --- | --- | --- | --- | --- | --- | --- | --- | --- | --- | --- | --- |
| CN(C)CCNc1c2ccccc2nc2oc3ccccc3c12 | 3.28 µM | 13.8 µM | 10.1 µM | 23.5 µM | 9 µM | > 100 µM | 9.45 µM | 37.9 µM | 6.88 µM | 34.8 µM | 6.49 µM | 32.2 µM | 3.61 µM | 15.1 µM | 4.07 µM | 16.1 µM |
| O=C(/C=C/C12c3ccccc3C(c3ccccc31)C1C(=O)NC(=O)C12)c1ccc(F)cc1 (stereo unspecified) | 1.68 µM | 3.11 µM | 1.68 µM | 3.48 µM | 1.87 µM | 4.03 µM | 3.46 µM | 13.2 µM | 1.65 µM | 3.18 µM | 1.7 µM | 4.45 µM | 2.12 µM | 4.59 µM | 1.66 µM | 4.48 µM |
| C[C@@H](NC(=O)[C@H](NC(=O)[C@@H]1CCCN1C(=O)CNC(=O)c1ccc(N)cc1)C(C)(C)C)C(=O)NO (H-[4Abz]GP[dTle][dA]-{NHOH}) | > 100 µM | > 100 µM | > 100 µM | > 100 µM | > 100 µM | > 100 µM | > 100 µM | > 100 µM | > 100 µM | > 100 µM | > 100 µM | > 100 µM | > 100 µM | > 100 µM | > 100 µM | > 100 µM |
| O=C(O)c1c(=O)cccc2ssc12 | 1.98 µM | 3.54 µM | 2.09 µM | 4.59 µM | 2.4 µM | 5.68 µM | 2.21 µM | 4.87 µM | 1.92 µM | 3.79 µM | 1.35 µM | 3.12 µM | 2.22 µM | 5.59 µM | 1.83 µM | 3.9 µM |
| CCCCCCCCCNC(=O)/C=C/c1ccc(O)c(O)c1 | 16.2 µM | 32.1 µM | 15.3 µM | 29 µM | 15.4 µM | 46.8 µM | 13.4 µM | > 100 µM | 21.4 µM | 50.3 µM | 37.5 µM | > 100 µM | 3.06 µM | 30.4 µM | 28.3 µM | > 100 µM |
| COc1cc(-c2csc(NC(=O)Nc3ccc(C(F)(F)F)cc3)n2)cc(OC)c1OC | 1.99 µM | 5.09 µM | 1.99 µM | 5.38 µM | 2.12 µM | 6.94 µM | 2.02 µM | 9.07 µM | 2.69 µM | 12.3 µM | 2.15 µM | 10.2 µM | 2.19 µM | 5.3 µM | 2.21 µM | 7.66 µM |
| CN1CCN(c2ccc(NC(=O)c3cncnc3Nc3ccc(OCc4ccccn4)c(Cl)c3)cc2)CC1 | 1.48 µM | 6.98 µM | 0.695 µM | 1.42 µM | 6.28 µM | 17.1 µM | 4.69 µM | 12.4 µM | 5.11 µM | 11.8 µM | 6.25 µM | 14.6 µM | 1.14 µM | 4.63 µM | 2.8 µM | 8.53 µM |
| Oc1c(Cl)cc(Cl)cc1C(c1cc(Cl)cc(Cl)c1O)C(Cl)(Cl)Cl | 1.68 µM | 5.77 µM | 0.73 µM | 10.6 µM | 1.99 µM | 7.25 µM | 3.21 µM | 19 µM | 3.23 µM | 15.8 µM | 1.61 µM | 4.51 µM | 2.98 µM | 12.2 µM | 2.7 µM | 14.2 µM |
| O=C1/C(=C/c2ccc(Cl)cc2)CCC/C1=C\c1ccc(Cl)cc1 | 2.3 µM | 8.69 µM | 4.39 µM | > 100 µM | 4.32 µM | > 100 µM | 5.17 µM | > 100 µM | 6.69 µM | > 100 µM | > 100 µM | > 100 µM | 2.36 µM | 6.39 µM | 2.93 µM | > 100 µM |
| CCCN(CCC)c1ccc(/C=N/NC(=O)c2cccnc2)c(OC)c1 | 2.27 µM | 17.9 µM | 16.2 µM | 45.6 µM | 24.8 µM | > 100 µM | 23.5 µM | 82.8 µM | 41.6 µM | > 100 µM | 16.9 µM | 59.2 µM | 24.5 µM | > 100 µM | 19.1 µM | 89.1 µM |
| O=C(Nc1cccc(-c2ccc(Cl)c(C(F)(F)F)c2)c1)C1CCN(Cc2cccc3cccnc23)CC1 | 1.33 µM | 2.65 µM | 1.69 µM | 3.09 µM | 1.69 µM | 3.31 µM | 1.59 µM | 3.08 µM | 1.74 µM | 3.18 µM | 1.73 µM | 3.15 µM | 1.77 µM | 3.54 µM | 1.44 µM | 2.95 µM |
